From US20260151413A1, “ANTICANCER DRUG CONJUGATES” (Ariel Scientific Innovations Ltd., priority 2022, published 2026)
“Also recorded” adds a separate entry of the source. Where two headings read alike, the source gives them in different places.

Legend:
[1] = tested on: JEKO-1; assay: WST-1 proliferation assay, JEKO-1; type: cell-based, human; conditions: Homo sapiens, JeKo-1; WST-1, 48 hours of treatment
Experimental: (§1) Albert Pinhasov (Ariel University, Ariel, Israel). […] Granta cells were kindly provided by Prof.
(§2) Table 3 [resents the calculated IC50 values (μM) for each chimera in different hematological malignancies cell-lines. The proliferation rate was measured by WST-1 assay after 48 hours of treatment. The result shown for each concentration point represents the […]

[2] = tested on: DND41; assay: WST-1 proliferation assay, DND41; type: cell-based, human; conditions: Homo sapiens, DND41; WST-1, 48 hours of treatment
Experimental: as §1, §2

[3] = tested on: OCI-AML3, KG-1a, Granta, Jeko-1 and BV-173 cells; assay: Apoptosis assay (Muse AnnexinV and Dead Cell kit); type: cell-based; conditions: 50-250 nM depending on cell line, 48 hours, compared to the parental drug
Experimental: Cells were analyzed using the multifunctional Muse®AnnexinV and Dead Cell kit (Luminex/Millipore, Austin, Texas, USA). Cells were treated with indicated concentrations of Doxorubizen, the corresponding parent drug, or with DMSO. After 48 hours of incubation cells were harvested, washed twice in PBS, and 2×10^5 cells were stained with 100 μl of Muse AnnexinV and Dead Cell Reagent. Samples were incubated for 20 min at room temperature in the dark. Cells were analyzed by the Muse®CellAnalyzer system (Millipore, Billerica, MA, USA), and the percentage of apoptosis was determined using Guava software (Luminex/Millipore, USA, version 3.3).
Chimera 9 was evaluated for its biological impact on mitochondrial function and cell death. To that end, the inventor treated the following cell lines OCI-AML3 (100 nM), KG-1a (100 nM), Granta (250 nM), Jeko-1 (50 nM) and BV-173 (50 nM) with doxorubicin or chimera 9.

[4] = tested on: triple negative breast cancer (TNBC) MDA 231 cells; conditions: for weight maintenance, survival and tumor growth suppression compared with doxorubicin: ip administration
Experimental: Five-week-old athymic Nude-Foxn 1nu male mice (ENVIGO Labs, Nes Ziona, Israel) were subcutaneously inoculated on the dorsal left side with […] (1×10^6 cell) into nu/nu mice, 0.2 mL per mouse) and tumors allowed to establish over time. When tumor volume reached 100 mm^3, Doxorubicin (Dox) and Doxorubizen (Chimera 9) were administered intraperitoneally (ip). Animals were removed from an experiment if either of the following conditions were fulfilled: reduction of 20% or more body weight; tumor volume>0.55 cm^3. The tumor dimensions were measured using a Vernier caliper and the volume was calculated according to the equation: Volume (mm^3) ¼ length×width×width×½ three times per week. The in vivo experiments were approved by the Animal Ethics Committee (Authorization number IL-179-06-19).
Chimera 9 was also evaluated for its effect on breast cancer model. For this evaluation, […] nude female (6-8 weeks) mice (groups 1, 2, two mice per group, groups 3, 4, 5 three mice per group) were inoculated with triple negative breast cancer (TNBC) MDA 231 cells. Group 1 was used as the control for tumor growth. After 10 days, mice were […] (ip) administered with Doxorubicin (groups 2 and 4) and Chimera 9 (Doxorubizen) (groups 3 and 5) in the following regime: ip administration of 2.5 mg/kg Doxorubicin once per week (group 2) and three sequential days per week (group 4); ip administration of 3.5 mg/kg chimera 9 once per week (group 3) and three sequential days per week (group 5). Overall experiment carried out for 5 weeks and 4 days, when the tumor volumes for all the groups were monitored. Tumors were then resected and measured.

[5] = tested on: MHH-CALL4; assay: WST-1 proliferation assay, MHH-CALL4; type: cell-based, human; conditions: Homo sapiens, MHHCALL4; WST-1, 48 hours of treatment
Experimental: as §1, §2

[6] = Group 5: ip 3.5 mg/kg, three sequential days per week

Structure (SMILES): COC(=O)N(C)/N=N/c1ccc(CNC2CC(OC3CC(O)(C(=O)CO)Cc4c(O)c5c(c(O)c43)C(=O)c3c(OC)cccc3C5=O)OC(C)C2O)cc1 (centres unmarked) [Chimera 9, (E)-methyl-3-(4-(((3-hydroxy-2-methyl-6-((3,5,12-trihydroxy-3-(2-hydroxyacetyl)-10-methoxy-6,11-dioxo-1,2,3,4,6,11-hexahydrotetracen-1-yl)oxy)tetrahydro-2H-pyran-4-yl)amino)methyl)phenyl)-1-methyltriaz-2-ene-1-carboxylate]
- IC50 [1]: 0.85 µM
- IC50 [2]: 0.64 µM
- rate of apoptosis [3]: substantial increase in the rate of apoptosis
- outcome compared to Group 2 (Doxorubicin once per week) ([4]; Group 3: ip 3.5 mg/kg once per week): no statistical significance
- body weight [4, 6]: didn't lose weight
- toxicity vs doxorubicin [4, 6]: reduced toxicity
- tumor volume [4, 6]: even reduced
- survival ([4]; Group 5: ip 3.5 mg/kg, three sequential days per week, 3.5 mg/kg): full survival; also recorded: survived until the end of the experiment
- weight maintenance, survival and tumor growth suppression compared with doxorubicin [4]: markedly superior
- weight maintenance, survival and tumor growth suppression compared with doxorubicin ([4]; listed as Doxorubizen): profoundly superior
- IC50 [5]: 1.14 µM
